Measured values published in ChEMBL document CHEMBL2028040, “Malaria Box”.

Key:
Trypanosoma cruzi = assay: MMV: Inhibition of Trypanosoma cruzi (Tulahuen C4 LacZ) (Chagas in vitro).; format: functional, organism-based
[1] = system: Trypanosoma brucei brucei; assay: MMV: Inhibition of Trypanosoma brucei brucei (Squib 427) (HAT in vitro).; format: functional, organism-based
Plasmodium falciparum [2] = assay: MMV: Inhibition of Plasmodium falciparum 3D7 at 5uM compound concentration.; format: functional
Plasmodium falciparum [3] = assay: MMV: Inhibition of Plasmodium falciparum 3D7 (EC50).; format: functional, organism-based
Plasmodium falciparum [4] = assay: MMV: Inhibition of Plasmodium falciparum K1 (EC50).; format: functional, organism-based
[5] = system: Trypanosoma brucei rhodesiense; assay: MMV: Inhibition of Trypanosoma brucei rhodesiense (STIB 900) (HAT in vitro).; format: functional, organism-based
[6] = MMV: Cytotoxicity against human fibroblasts (MRC-5) cells.; settings: MRC-5 cells (human fibroblasts)
Leishmania infantum = assay: MMV: Inhibition of Leishmania infantum (MHOM/MA/BE/67) in vitro.; format: functional, organism-based

SMILES	IC50 (Trypanosoma cruzi) [µM]	IC50 [1] [µM]	EC50 (Plasmodium falciparum [3]) [nM]	EC50 (Plasmodium falciparum [4]) [nM]	IC50 [5] [µM]	IC50 (Leishmania infantum) [µM]	inhibition at 5 µM (Plasmodium falciparum [2]) [%]	IC50 [6] [µM]
CCOC(=O)C1=C(c2ccccc2)N=c2sc(=Cc3cc(C)n(-c4ccc(F)cc4)c3C)c(=O)n2C1c1cccc(OC)c1OC (configuration not stated)	> 32	> 32	154	344	13.3	> 32	94	> 32
CCCc1cc(O)c2c3c(c(=O)oc2c1)CN(C)CC3	> 32	> 32	146	80.7	> 32	> 32	97	> 32
Oc1c(C(Nc2ccccn2)c2cccc(Oc3ccccc3)c2)ccc2cccnc12 (configuration not stated)	1.05	1.01	1010	1070	0.972	1	97	3.89
c1ccc2c(NCCCCCCNc3c4c(nc5ccccc35)CCCC4)c3c(nc2c1)CCCC3	1.19	1.02	376	1350	0.794	1.01	100	4.06
COc1cccc(C(=O)NC(c2ccc(C)cc2)c2cc(Cl)c3cccnc3c2O)c1 (configuration not stated)	3.77	3.49	393	527	4.06	> 32	97	> 32
COc1cc(OC)c(N(C)C(=O)c2cc3c(s2)-c2ccccc2S(=O)(=O)C3)cc1Cl	15.7	16.2	78.2	93.6	4.36	21.5	100	> 32
CN1C=C(c2ccc3ccccc3n2)C(c2c[nH]c3ccccc23)c2ccccc21 (configuration not stated)	0.934	3.77	552	1060	0.979	16.2	95	> 32
COc1cc2c3cc1Oc1c(OC)c(OC)cc4c1C(Cc1ccc(O)c(c1)Oc1ccc(cc1)CC3N(C)CC2)N(C)CC4 (configuration not stated)	3.67	14.5	1270	1190	4.59	12	96	4.42
CC(C)(C)c1ccc(C2CC3=Nc4ccccc4N(C(=O)c4ccccc4Cl)C(c4ccc(F)cc4)C3=C(O)C2)cc1 (configuration not stated)	> 32	4.25	946	824	1.11	17.3	96	> 32

The next lines start with results.

IC50 (Trypanosoma cruzi) [µM]	IC50 [1] [µM]	EC50 (Plasmodium falciparum [3]) [nM]	EC50 (Plasmodium falciparum [4]) [nM]	IC50 [5] [µM]	IC50 (Leishmania infantum) [µM]	SMILES	inhibition at 5 µM (Plasmodium falciparum [2]) [%]	IC50 [6] [µM]
25.1	4.06	646	928	2.84	4.06	O=C(NC1CCN(Cc2ccccc2)CC1)c1cc(C(=O)NC2CCN(Cc3ccccc3)CC2)cc(C(=O)NC2CCN(Cc3ccccc3)CC2)c1	98	> 32
15.1	> 32	32.8	39.1	9.83	> 32	Cc1cc(NC(=O)C2c3ccccc3C(=O)N(CC(C)C)C2c2cccs2)no1 (configuration not stated)	100	30.1
> 32	19.6	1010	1380	0.265	> 32	O=C(Nc1cccc(C2=NCCN2)c1)Nc1cccc(C2=NCCN2)c1 [IMIDOCARB]	83	> 32
15.6	15	846	532	4.09	10.1	O=c1cc(NC2CCN(CCCc3ccccc3)CC2)c2cc(Cl)ccc2o1	97	> 32
1	< 0.125	235	1560	< 0.125	1.01	CN(C)CCCNc1c2ccccc2nc2ccccc12	95	2.86
